Activity calls are given as the source filed them.
Key:
[1] = biological target: Beta-galactosidase (Escherichia coli, UniProt Q8VNN2); test: Dose response counterscreen for EBI2 assay utilizing the enzyme, b-galactosidase.; type: functional
[2] = general mammalian cell viability loss – inhibitor set, cherry-pick, set 2, cytotoxicity control for miR-122 modulator project, dose response (AID 720697); type: functional, cell-based
[3] = biological target: T1, Nuclear receptor subfamily 0 group B member 1 (Homo sapiens, UniProt P51843); type: functional, cell-based;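 further: HEK293T cells transfected with SF-1 and DAX-1 plus StAR promoter luciferase reporter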
T1 sequence (P51843 whole entry): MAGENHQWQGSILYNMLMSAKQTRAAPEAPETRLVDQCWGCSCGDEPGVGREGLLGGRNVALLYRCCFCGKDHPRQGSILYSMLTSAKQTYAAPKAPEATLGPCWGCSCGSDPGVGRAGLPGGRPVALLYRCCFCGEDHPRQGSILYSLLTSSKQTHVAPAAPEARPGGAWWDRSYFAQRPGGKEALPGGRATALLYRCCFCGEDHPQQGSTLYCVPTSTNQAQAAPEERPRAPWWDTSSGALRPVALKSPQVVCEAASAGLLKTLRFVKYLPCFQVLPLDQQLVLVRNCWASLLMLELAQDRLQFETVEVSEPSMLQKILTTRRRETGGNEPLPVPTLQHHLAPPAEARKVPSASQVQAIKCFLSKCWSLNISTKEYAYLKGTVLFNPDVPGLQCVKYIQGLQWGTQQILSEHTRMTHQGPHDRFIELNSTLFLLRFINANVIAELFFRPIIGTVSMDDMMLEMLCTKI

[4] = cells; type: functional, cell-based
[5] = biological target: T2, Endoribonuclease toxin MazF (Escherichia coli K-12, UniProt P0AE70); test: activation of MazEF endoribonuclease cleavage – biochemical, fluorescence, single-stranded RNA substrate, uHTS hits, dose response (AID 588481); type: functional
T2 sequence (P0AE70 whole entry): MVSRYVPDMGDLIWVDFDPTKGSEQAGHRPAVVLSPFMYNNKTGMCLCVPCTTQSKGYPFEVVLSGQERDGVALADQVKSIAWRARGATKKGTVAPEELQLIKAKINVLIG

[6] = biological target: T3, Caspase-7 (Homo sapiens, UniProt P55210); test: caspase-7 enzyme inhibition, selectivity check – biochemical, DEVD-R110 fluorescence, cherry-pick, selectivity assay for caspase-6 inhibitor project, dose response (AID 743295); type: functional
T3 sequence (P55210 whole entry): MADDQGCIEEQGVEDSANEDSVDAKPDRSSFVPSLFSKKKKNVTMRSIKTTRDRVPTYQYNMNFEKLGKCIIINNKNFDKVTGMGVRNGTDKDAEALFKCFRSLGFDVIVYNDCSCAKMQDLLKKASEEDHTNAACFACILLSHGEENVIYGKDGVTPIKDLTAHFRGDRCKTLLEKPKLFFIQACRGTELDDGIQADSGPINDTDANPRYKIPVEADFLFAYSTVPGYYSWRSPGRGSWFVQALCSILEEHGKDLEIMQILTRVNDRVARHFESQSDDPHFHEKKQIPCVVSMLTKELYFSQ

[7] = biological target: Glucose-6-phosphate 1-dehydrogenase (Homo sapiens, UniProt P11413); test: inhibition of Homo sapiens G6PD, dose series – biochemical, fluorescence, selectivity assay for P. falciparum G6PD inhibitor project, dose response (AID 504792); type: functional
[8] = biological target: T4, Caspase-6 (Homo sapiens, UniProt P55212); test: inhibition of CASP6 peptide cleavage – biochemical, VEID-R110 fluorescence, cherry-pick, dose response (AID 720632)
T4 sequence (P55212 whole entry): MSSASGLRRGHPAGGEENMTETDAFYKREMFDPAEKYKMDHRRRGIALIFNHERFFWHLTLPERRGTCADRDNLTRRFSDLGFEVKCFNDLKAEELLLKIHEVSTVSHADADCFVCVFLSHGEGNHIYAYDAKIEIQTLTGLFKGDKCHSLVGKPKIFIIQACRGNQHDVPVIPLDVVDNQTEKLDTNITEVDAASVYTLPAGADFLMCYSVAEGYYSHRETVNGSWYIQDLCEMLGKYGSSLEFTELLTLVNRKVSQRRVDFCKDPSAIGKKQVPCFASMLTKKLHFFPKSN

[9] = biological target: T2, Endoribonuclease toxin MazF; test: substrate-only fluorescence increase artefacts – biochemical, single-stranded RNase substrate, counter-screen for MazEF activator project, dose response (AID 588502); type: functional
[10] = non-specific 3'UTR reporter inhibition in Clone20-Shn3RL – cell-based, Renilla luciferase, cherry-picked, counter-screen for Shn3 inhibitor project, dose response (AID 624133); type: functional
[11] = loss of viability in HepG2 cells – cell-based, CellTiter-Glo, cherry-picked, cytotoxicity control for Shn3 inhibitor project, dose response (AID 624134); type: functional
[12] = biological target: 1-phosphatidylinositol 4,5-bisphosphate phosphodiesterase gamma-1 (Homo sapiens, UniProt P19174); test: Counterscreen for inhibitors of phospholipase C isozymes (PLC-B3): Fluorescence-based biochemical high throughput dose response assay to identify inhibitors of phospholipase C isozymes (PLC-gamma1).
[13] = reduction of Shn3 3'UTR-driven luciferase in osteoblasts – cell-based, Clone20 osteoblasts, firefly luciferase, cherry-picked, dose response (AID 624132); type: functional;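 further: firefly luciferase luminescence from reporter carrying the Shn3 3'UTR in osteoblasts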
[14] = biological target: 1-phosphatidylinositol 4,5-bisphosphate phosphodiesterase beta-3 (Homo sapiens, UniProt Q01970); test: Fluorescence-based biochemical high throughput dose response assay to identify inhibitors of phospholipase C isozymes (PLC-B3).
[15] = biological target: T5, Fatty acid synthase (Homo sapiens, UniProt P49327); test: inhibition of human FAS-TE enzyme activity – biochemical, kinetic fluorescence intensity, dose response (AID 624326); type: functional;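 further: rate of fluorescence rise from hydrolysis of a fluorogenic O-methyl fluorescein ester substrate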
[16] = biological target: T5, Fatty acid synthase; test: inhibition of human FAS-TE enzyme activity – biochemical, endpoint fluorescence intensity, uHTS hits, dose response (AID 624327); type: functional;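 further: fluorescence from hydrolysis of an O-methyl fluorescein acyl ester substrate by the enzyme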
[17] = biological target: Long-chain-fatty-acid--AMP ligase FadD28 (Mycobacterium tuberculosis, UniProt P9WQ59); test: Fluorescence polarization aasay to screen for inhibitors that compete for the binding of FadD28 to a bisubstrate Measured in Biochemical System Using Plate Reader - 2147-01_Inhibitor_Dose_CherryPick_Activity.; type: functional, Mycobacterium tuberculosis H37Rv
[18] = biological target: Disintegrin and metalloproteinase domain-containing protein 17 (Homo sapiens, UniProt P78536); test: exosite inhibitors of ADAM17, dose response, biochemical (AID 743260)
[19] = inhibition of ADAM10 peptide cleavage – biochemical, FRET peptide substrate, recombinant human ADAM10, selectivity assay for ADAM17 exosite inhibitor project, dose response (AID 743259);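 further: ADAM10 enzyme cleaving a FRET peptide substrate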
[20] = microbe, parasite or virus in culture; type: functional; conditions: Mycobacterium tuberculosis
[21] = OVCAR8 cell viability loss – plate reader, dry powder samples, PAX8 project, dose response (AID 743197); type: functional, cell-based; conditions: OVCAR-8
[22] = IGROV1 cell killing – plate reader, dry powder samples, PAX8 inhibitor project, dose response (AID 743043); type: functional, cell-based; conditions: IGROV-1
[23] = biological target: Paired box protein Pax-8 (Homo sapiens, UniProt Q06710); test: PAX8 transcriptional activity inhibition in RMG-I – RMG-I cells, luciferase, cherry-pick, dose response (AID 687027); type: functional, cell-based;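 further: luciferase reporter driven by Pax8 target thyroperoxidase promoter measured by SteadyGlo luminescence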
[24] = general cell-killing toxicity readout – plate reader, dry powder samples, cytotoxicity control for PAX8 inhibitor project, dose response (AID 743021); type: functional, cell-based
[25] = biological target: Protein Wnt-3a (Mus musculus, UniProt P27467); test: SAR analysis of small molecule antagonists of Gli-SUFU in a Wnt3a luminescent reporter assay.; type: functional
[26] = cells
[27] = biological target: Major prion protein (Homo sapiens, UniProt P04156); type: functional, cell-based

COc1ccccc1N1CCN(C(=O)c2cc(-c3ccc(F)cc3)[nH]c2C)CC1
IC50 [1]: > 80 µM (inactive)

COc1ccccc1C(=O)N1C[C@@H]2[C@H](c3ccccc31)[C@H](CO)N2CC1CCCC1
AC50 [2]: 9.28 µM (active)

C/C(=N\NC(=O)c1ccccc1O)c1cccs1
IC50 [3]: > 67.5 µM (inactive) | IC50 [4]: > 67.5 µM (inactive)

Cc1ccc([S+]([O-])c2ccc([N+](=O)[O-])c3nonc23)cc1 (configuration not stated)
EC50 [5]: > 99 µM (inactive) | AC50 [6]: > 70 µM (inactive) | IC50 [7]: 42.3 µM (inactive) | AC50 [8]: 2.56 µM (active) | EC50 [9]: > 99 µM (inactive)

O=C(c1cccc(S(=O)(=O)N2CCN(c3ccc(F)cc3)CC2)c1)N1CCCC(C(F)(F)F)C1 (configuration not stated)
AC50 [10]: 8.1 µM (active) | AC50 [11]: 2.61 µM (active) | IC50 [12]: > 122 µM (inactive) | AC50 [13]: 942 nM (active) | IC50 [14]: > 122 µM (inactive)

O=C(CN1C(=O)S/C(=C\c2ccccc2)C1=O)Nc1cc([N+](=O)[O-])ccc1O
IC50 [15]: 1.83 µM (active) | IC50 [16]: 2.94 µM (active) | AC50 [17]: 61.2 µM (active)

CCOc1ccc(-c2[nH]ncc2-c2ccc(Cl)cc2)c(O)c1
IC50 [18]: > 69.5 µM (inactive) | IC50 [19]: 23.7 µM (inactive) | CC50 [20]: > 40 µM (active)

C[C@@H]1CN([C@@H](C)CO)C(=O)c2cc(NC(=O)Cc3ccccc3)ccc2O[C@@H](C)CCCCO[C@@H]1CN(C)Cc1ccc(C(F)(F)F)cc1
AC50 [21]: > 70 µM (inactive) | AC50 [22]: 31.7 µM (active) | AC50 [23]: 7.23 µM (active)

Cn1c(SCC(=O)c2ccccc2)nnc1-c1ccccn1
AC50 [24]: 51 µM (active)

CCC(C)Nc1cc(NC(=O)c2ccccc2)ncn1 (configuration not stated)
IC50 [25]: > 21.8 µM (inactive)

N#Cc1ccc(-c2nc3ccc(Br)cn3c2Cc2cccc(F)c2)cc1
IC50 [26]: > 138 µM (inactive) | IC50 [27]: 2.98 µM (active)

Source: ChEMBL document CHEMBL1201862, “PubChem BioAssay data set” (2004)
